Columns and labels:
Experiment in all cases: Tyrosine kinase inhibition assay
Type in all cases: biochemical
[1] = biological target: T1, EPHB3 (Homo sapiens, UniProt P54753); details: single concentration 1.0 μM, read-out: percent inhibition
T1 sequence (P54753 34-998): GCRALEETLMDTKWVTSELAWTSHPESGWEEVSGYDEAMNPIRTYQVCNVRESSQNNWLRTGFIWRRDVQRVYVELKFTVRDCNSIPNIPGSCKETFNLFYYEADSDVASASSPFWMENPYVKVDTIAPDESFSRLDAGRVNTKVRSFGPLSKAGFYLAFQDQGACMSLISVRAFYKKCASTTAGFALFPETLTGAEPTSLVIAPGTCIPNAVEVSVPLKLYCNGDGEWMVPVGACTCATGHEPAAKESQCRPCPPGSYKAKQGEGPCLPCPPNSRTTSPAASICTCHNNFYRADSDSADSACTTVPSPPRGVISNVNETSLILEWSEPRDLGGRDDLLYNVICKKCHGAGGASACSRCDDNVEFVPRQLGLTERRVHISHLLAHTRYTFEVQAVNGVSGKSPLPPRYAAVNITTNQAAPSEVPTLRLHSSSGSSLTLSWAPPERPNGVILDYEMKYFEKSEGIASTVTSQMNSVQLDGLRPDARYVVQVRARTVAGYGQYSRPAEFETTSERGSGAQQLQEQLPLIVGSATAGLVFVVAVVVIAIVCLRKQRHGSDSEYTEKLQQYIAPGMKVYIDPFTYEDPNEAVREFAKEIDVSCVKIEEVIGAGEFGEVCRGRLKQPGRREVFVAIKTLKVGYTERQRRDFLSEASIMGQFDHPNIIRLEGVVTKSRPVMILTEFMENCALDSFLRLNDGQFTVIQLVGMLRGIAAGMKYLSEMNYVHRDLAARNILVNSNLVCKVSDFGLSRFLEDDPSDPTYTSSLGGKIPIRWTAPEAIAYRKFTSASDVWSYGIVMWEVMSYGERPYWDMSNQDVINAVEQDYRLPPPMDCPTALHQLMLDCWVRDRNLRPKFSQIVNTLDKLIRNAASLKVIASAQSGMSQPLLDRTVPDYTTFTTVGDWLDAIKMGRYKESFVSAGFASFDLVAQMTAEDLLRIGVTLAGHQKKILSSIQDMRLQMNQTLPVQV
Method in brief: (§1)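 Peptide/kinase mixtures and ATP (apparent Km) are combined in 50 mM HEPES pH 7.5 kinase buffer with 10 mM MgCl2, 1 mM EGTA and 0.01% BRIJ-35, compound at 1.0 μM in 1% DMSO. Development reagent is then added and percent inhibition calculated.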

[2] = tested on: FYN; details: single concentration 1.0 μM
Method in brief: as §1

[3] = biological target: T2, AXL (Homo sapiens, UniProt P30530); details: for inhibition at 1 µM: single concentration 1.0 μM, read-out: percent inhibition; for IC50: read-out: IC50 of compound
T2 sequence (P30530 26-894): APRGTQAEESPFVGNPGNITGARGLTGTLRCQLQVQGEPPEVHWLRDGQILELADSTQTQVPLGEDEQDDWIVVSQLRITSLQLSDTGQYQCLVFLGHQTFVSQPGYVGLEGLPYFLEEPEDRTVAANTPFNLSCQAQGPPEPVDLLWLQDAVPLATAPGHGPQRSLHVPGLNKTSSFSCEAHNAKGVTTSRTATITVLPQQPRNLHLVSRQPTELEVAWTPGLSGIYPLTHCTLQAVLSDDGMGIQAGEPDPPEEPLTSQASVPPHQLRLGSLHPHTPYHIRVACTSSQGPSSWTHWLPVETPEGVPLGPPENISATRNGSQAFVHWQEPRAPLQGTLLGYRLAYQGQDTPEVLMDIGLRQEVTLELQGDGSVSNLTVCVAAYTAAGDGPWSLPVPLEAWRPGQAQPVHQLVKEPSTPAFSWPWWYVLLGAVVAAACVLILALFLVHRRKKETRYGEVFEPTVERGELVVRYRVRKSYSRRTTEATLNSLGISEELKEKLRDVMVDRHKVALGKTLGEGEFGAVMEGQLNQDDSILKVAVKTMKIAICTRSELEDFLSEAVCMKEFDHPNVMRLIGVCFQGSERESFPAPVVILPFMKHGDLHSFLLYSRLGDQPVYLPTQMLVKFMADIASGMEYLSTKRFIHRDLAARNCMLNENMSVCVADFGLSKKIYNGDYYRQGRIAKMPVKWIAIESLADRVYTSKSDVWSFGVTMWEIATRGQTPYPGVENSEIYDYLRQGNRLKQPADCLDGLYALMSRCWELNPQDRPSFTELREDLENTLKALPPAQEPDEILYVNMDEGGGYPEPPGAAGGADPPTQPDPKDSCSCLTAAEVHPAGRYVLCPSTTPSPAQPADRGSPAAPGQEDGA
Description: (§2) Tyrosine kinase inhibition assays were performed at ThermoFisher Life Technologies (Madison, WI, USA) using standard protocols (SelectScreen Biochemical Profiling Service, Thermo Fisher Scientific). ATP concentrations used were at the apparent Km. Test compounds were screened in 1% dimethylsulffoxide (DMSO) (final concentration) in the well. For 10-point titrations, 3-fold serial dilutions were conducted from the starting concentration of […]. All Peptide/Kinase Mixtures were diluted to a 2× working concentration in the appropriate Kinase Buffer. All ATP Solutions were diluted to a 4× working concentration in Kinase Buffer (50 mM HEPES pH 7.5, 0.01% BRIJ-35, 10 mM MgCl2, 1 mM EGTA). The apparent ATP Km was previously determined using a Z′-LYTE assay. The Development Reagent was diluted in Development Buffer.
(§3) The inhibition activities of compounds were determined in biochemical assays using single concentration (1.0 μM) measurements. The results were provided as percent inhibition values.

[4] = biological target: KDR (VEGFR2) (Homo sapiens, UniProt P35968); details: for inhibition at 1 µM: single concentration 1.0 μM, read-out: percent inhibition; for IC50: read-out: IC50 of compound
Description: as §2, §3

[5] = biological target: MET (cMet) (Homo sapiens, UniProt P08581); details: for inhibition at 1 µM: single concentration 1.0 μM, read-out: percent inhibition; for IC50: read-out: IC50 of compound
Description: as §2, §3

Chain of KDR (VEGFR2) (P35968 20-1356): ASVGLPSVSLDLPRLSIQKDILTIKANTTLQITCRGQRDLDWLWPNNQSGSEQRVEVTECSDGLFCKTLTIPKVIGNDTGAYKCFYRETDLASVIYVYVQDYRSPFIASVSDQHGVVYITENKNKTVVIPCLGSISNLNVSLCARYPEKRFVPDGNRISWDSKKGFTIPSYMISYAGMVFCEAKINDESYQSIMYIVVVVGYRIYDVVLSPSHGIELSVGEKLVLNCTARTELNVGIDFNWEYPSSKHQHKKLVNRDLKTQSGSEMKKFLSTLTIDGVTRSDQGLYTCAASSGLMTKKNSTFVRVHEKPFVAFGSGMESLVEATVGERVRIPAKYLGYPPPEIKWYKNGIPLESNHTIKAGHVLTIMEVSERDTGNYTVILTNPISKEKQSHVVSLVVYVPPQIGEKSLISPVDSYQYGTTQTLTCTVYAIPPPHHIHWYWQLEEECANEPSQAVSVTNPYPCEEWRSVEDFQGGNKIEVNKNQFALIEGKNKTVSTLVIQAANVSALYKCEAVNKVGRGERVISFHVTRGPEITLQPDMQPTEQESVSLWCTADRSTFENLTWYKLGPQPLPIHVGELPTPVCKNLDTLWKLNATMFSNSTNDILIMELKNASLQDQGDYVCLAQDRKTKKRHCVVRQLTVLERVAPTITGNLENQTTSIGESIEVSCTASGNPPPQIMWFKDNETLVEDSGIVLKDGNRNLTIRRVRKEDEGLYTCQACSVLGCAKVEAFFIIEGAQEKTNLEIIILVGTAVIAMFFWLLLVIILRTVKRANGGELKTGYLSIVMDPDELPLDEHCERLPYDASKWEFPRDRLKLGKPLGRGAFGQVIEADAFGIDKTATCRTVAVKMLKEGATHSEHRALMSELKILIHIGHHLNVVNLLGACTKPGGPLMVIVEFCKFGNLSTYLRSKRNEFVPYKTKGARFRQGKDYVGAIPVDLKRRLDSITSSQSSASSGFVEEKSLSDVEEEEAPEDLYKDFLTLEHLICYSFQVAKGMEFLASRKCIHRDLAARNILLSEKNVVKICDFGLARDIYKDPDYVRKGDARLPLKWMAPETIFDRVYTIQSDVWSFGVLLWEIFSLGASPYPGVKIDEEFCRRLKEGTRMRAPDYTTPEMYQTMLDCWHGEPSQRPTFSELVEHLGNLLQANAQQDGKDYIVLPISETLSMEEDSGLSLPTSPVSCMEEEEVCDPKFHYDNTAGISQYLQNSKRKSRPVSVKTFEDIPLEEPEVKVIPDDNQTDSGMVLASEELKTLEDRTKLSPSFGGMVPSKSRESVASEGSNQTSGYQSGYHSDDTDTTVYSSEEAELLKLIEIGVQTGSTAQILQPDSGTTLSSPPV
Chain of MET (cMet) (P08581 25-1390): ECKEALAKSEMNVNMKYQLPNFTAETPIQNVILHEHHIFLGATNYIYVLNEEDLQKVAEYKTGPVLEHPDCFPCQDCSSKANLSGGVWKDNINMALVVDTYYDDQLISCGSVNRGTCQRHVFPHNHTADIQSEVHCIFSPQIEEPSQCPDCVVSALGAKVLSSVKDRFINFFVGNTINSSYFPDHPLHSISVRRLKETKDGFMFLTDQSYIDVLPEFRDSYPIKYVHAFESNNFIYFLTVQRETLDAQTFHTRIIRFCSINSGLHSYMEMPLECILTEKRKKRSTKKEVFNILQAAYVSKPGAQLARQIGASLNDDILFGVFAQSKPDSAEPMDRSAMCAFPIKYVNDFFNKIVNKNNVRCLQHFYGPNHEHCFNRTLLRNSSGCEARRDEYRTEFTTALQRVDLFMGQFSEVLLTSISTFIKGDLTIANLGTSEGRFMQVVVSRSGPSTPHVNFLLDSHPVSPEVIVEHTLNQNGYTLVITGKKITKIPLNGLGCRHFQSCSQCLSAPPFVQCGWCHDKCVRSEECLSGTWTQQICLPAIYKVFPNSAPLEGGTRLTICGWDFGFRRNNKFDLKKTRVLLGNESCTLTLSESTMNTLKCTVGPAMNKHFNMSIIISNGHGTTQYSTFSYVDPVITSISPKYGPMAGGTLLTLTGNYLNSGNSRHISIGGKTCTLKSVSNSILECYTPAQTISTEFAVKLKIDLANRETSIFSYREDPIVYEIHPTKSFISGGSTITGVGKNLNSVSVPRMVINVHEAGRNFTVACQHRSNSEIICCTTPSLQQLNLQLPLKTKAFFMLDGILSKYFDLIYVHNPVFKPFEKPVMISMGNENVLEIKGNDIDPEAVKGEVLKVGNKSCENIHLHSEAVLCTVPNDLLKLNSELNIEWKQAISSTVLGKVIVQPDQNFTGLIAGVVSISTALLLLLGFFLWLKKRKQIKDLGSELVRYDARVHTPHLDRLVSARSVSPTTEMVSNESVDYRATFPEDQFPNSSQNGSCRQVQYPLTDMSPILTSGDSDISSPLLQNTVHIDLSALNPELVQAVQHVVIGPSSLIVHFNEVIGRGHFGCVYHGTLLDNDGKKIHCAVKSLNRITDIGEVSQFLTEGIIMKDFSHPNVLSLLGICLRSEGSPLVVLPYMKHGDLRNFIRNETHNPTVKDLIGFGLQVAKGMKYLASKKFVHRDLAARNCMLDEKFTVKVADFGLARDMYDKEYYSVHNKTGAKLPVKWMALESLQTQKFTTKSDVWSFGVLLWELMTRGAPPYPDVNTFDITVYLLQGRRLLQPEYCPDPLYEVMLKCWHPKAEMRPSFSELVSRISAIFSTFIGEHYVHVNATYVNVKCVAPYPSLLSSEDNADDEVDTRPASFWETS

SMILES	inhibition at 1 µM [1]	percent inhibition [2]	inhibition at 1 µM [3]	inhibition at 1 µM [4]	inhibition at 1 µM [5]	IC50 [3]	IC50 [4]	IC50 [5]
COc1cc2nccc(Oc3ccc(NC(=O)C4(C(=O)Nc5ccc(F)cc5)CC4)cc3)c2cc1OC [Cabozantinib, reference compound]	54%	–	–	–	–	–	–	–
COc1cc2nccc(Oc3ccc(NC(=O)C4(NC(=O)c5ccc(F)cc5)CC4)cc3F)c2cc1OC [Cbo-02, N-(1-((4-((6,7-diMethoxyquinolin-4-yl)oxy)-3-fluorophenyl)carbamoyl)cyclopropyl)-4-fluorobenzamide]	4%	16%	91%	96%	100%	–	–	–
COc1cc2nccc(Oc3ccc(NC(=O)C4(NC(=O)c5ccc(F)cc5)CC4)cc3F)c2cc1Oc1ccc(N)cc1F [Cbo-10]	6%	35%	98%	98%	95%	–	–	–
COc1cc2nccc(Oc3ccc(NC(=O)C4(NC(=O)c5ccc(F)cc5)CC4)cc3F)c2cc1Oc1c(F)cc(N)cc1F [Cbo-14]	6%	48%	96%	100%	97%	–	–	–
COc1cc2nccc(Oc3ccc(NC(=O)C4(C(=O)Nc5ccc(F)cc5)CC4)cc3F)c2cc1Oc1ccc(N)cc1F [Cbo-23]	55%	51%	106%	98%	98%	5.42 nM	29.2 nM	35.2 nM
CNC(=O)c1cc2c(Oc3ccc(NC(=O)C4(C(=O)Nc5ccc(F)cc5)CC4)cc3)ccnc2cc1OC [Zanzalintinib, reference compound]	–	–	–	–	–	1.41 nM	2.43 nM	4.26 nM

Source: patent publication US20250120967A1, “TYROSINE KINASES INHIBITORS AND USES THEREOF” (GREAT NOVEL THERAPEUTICS BIOTECH & MEDICALS CORPORATION, priority 2023, published 2025)
